Assay results from patent US20090208425A1, “TRANSMUCOSAL ADMINISTRATION OF 2,3-DIMETHOXY-5-METHYL-6-(10-HYDROXYDECYL)-1,4-BENZOQUINONE” (SANTHERA PHARMACEUTICALS (SCHWEIZ) AG, priority 2006, published 2009).
Read-outs that look alike come from different tables or passages of the source.

Legend:
[1] = Pharmacokinetics after sublingual (oromucosal) vs. oral delivery of idebenone micro-emulsion in dogs; assay type: in vivo, Beagle dogs; details: for Cmax / Tmax / AUC(0-t): beagle, dog, mean; for AUC(0-t): read-out: AUC0-480 of idebenone (converted)
Experimental: Quantification of idebenone was performed by liquid chromatography (LC) coupled on-line with tandem mass spectrometry (MS/MS). Calibration samples were prepared in human plasma and quality control (QC) samples were prepared in dog plasma.
150 μl of dog plasma were treated with 10 μl of an EDTA solution, prepared by dissolution of 1245 mg EDTA-potassium salt in 33 ml of 1M NH4OAc, and 300 μl of Methanol. After vigorous shaking, samples were centrifuged for 45 minutes with 1960 RCF at 4° C. A 50 μl aliquot of the supernatant was injected into the LC-MS/MS system. All unknown, calibration and QC samples were subjected to the same assay procedure.
Idebenone was separated and quantified by HPLC-MS/MS: For HPLC, a Synergi™ 4μ MAX-RP (50×2 mm) column (Phenomenex, Schlieren, Switzerland) was used. Column temperature: 50° C. Mobile phase A: water+30 mM NH4OAc; mobile phase B: MeOH/H2O 100/3 (v/v)+30 mM NH4OAc, gradient elution (table 4). Flow: 250 μl/min and 400 μl/min.
Once separated, idebenone was quantified by ESI-MS/MS (API 4000, Perkin-Elmer-Europe BV, Rotkreuz, Switzerland) in positive mode.
Idebenone conjugates such as glucuronates and sulphates have been quantified after acidic hydrolysis as described by R. Artuch, C. Colomé, M. A. Vilaseca, A. Aracil. M. Pineda, J. Neurosci. Meth. 115 (2002), 63-66.
Plasma levels of idebenone were studied after the administration of a micro-emulsion, prepared as described in example 1, to dogs (n=3). The sublingual administration of 4 mg/kg was compared with 40 mg/kg oral administration in a cross-over design. Blood samples were collected for 8 hours after administration. Concentrations of idebenone in plasma were measured by HPLC-MS/MS as described in example 4 and pharmacokinetic parameters were calculated.
The pharmacokinetic analysis included maximum plasma concentration (Cmax), the time when maximum plasma concentration was observed (Tmax), and the area under the plasma concentrations versus time curve from time 0 h to 480 min (AUC0-480min). The relative bioavailability of idebenone after sublingual administration compared to the oral administration was calculated for each dog from normalized (1 mg/kg) AUC values. The AUC ratios of the metabolites were also calculated. In addition, Cmax ratios, normalized to a 1 mg/kg dose, were calculated.

[2] = First-pass hepatic metabolism of idebenone after oral administration; assay type: in vivo; details: after absorption in the gut (oral administration)
From the text: As a lipophilic compound idebenone is well absorbed in the gastrointestinal tract after conventional oral administration, which is the normal route for administering said compound. Dosage forms such as tablets or capsules have been used in clinical trials and as marketed product. In the course of our investigations on the pharmacological profile of idebenone, we discovered that the compound, after being absorbed in the gut, is metabolized very quickly during its first passage through the liver (“first-pass-effect”). […] Hepatic metabolism of idebenone results in side chain oxidation, reduction of the quinone ring, sulphate and glucuronide conjugation and subsequent renal excretion. The high first-pass-effect leads to a fast reduction of pharmacologically active plasma levels of free idebenone. Because of this strong first pass metabolism, oral administration of idebenone requires high doses of the compound to achieve pharmacologically efficacious plasma levels in the body. Said high doses can result in unwanted side effects such as diarrhea.

[3] = 536 patients, up to 360 mg idebenone t.i.d.; cited from earlier work
[4] = 4 mg/kg oro-mucosal (sublingual), micro-emulsion of example 1, dogs n=3, plasma
[5] = 40 mg/kg oral (p.o.), dogs n=3, plasma
[6] = oromucosal (4 mg/kg) vs. oral (40 mg/kg), normalized to a 1 mg/kg dose, dogs

Cmax [1, 4]: 106 ng/mL | Tmax [1, 4]: 6.3 min | AUC(0-t) [1, 4]: 21.1 ng·h/mL | Cmax [1, 5]: 31.9 ng/mL | Tmax [1, 5]: 22.7 min | AUC(0-t) [1, 5]: 18 ng·h/mL | AUC ratio, idebenone (normalized for dose) [1, 6]: 11.1 | Cmax ratio, idebenone (normalized for dose) [1, 6]: 36.8 | idebenone metabolized during its first passage through the liver [2]: more than 98%
Structure (SMILES): COC1=C(OC)C(=O)C(CCCCCCCCCCO)=C(C)C1=O [idebenone, 2,3-dimethoxy-5-methyl-6-(10-hydroxydecyl)-1,4-benzoquinone]
treatment emergent adverse events compared to placebo [3]: no treatment emergent adverse events except some gastrointestinal irritations as well as a slight increase in orthopedic events
